From patent US11369618B2, “Compounds, compositions and methods for prevention and/or treatment of cancer” (THE TRUSTEES OF THE UNIVERSITY OF PENNSYLVANIA, priority 2016, dated 2022) come the findings set out here.

Each structure is given as a SMILES string. “Also recorded” adds a separate entry of the source.

Test [1] relates to YUMM 1.7 cells (BRafV600E/wt Pten−/−Cdkn2−/−). Put plainly: YUMM 1.7 melanoma in C57BL/6 mice treated with G-1 with and without αPD-1. The test is classed as in vivo, mouse. Conditions: YUMM 1.7, treatment initiated at day 14. An excerpt: FIGS. 14A-14F illustrate the finding that treatment of melanoma bearing mice with G-1 and αPD-1 immunotherapy dramatically extends survival. FIG. 14A: Experimental timeline of B16F10 bearing mice treated with vehicle or G-1, as well as αPD-1 antibody or isotype antibody control (2A3), n=10 per group. FIG. 14B: Tumor volumes of treatment groups at Day 14, * denotes significance One-way ANOVA with Tukey's multiple comparison test. FIG. 14C: Survival curve of mice treated with vehicle or G-1, as well as isotype antibody control (2A3) or αPD-1 antibody. FIG. 14D: Experimental outline of YUMM1.7 bearing mice treated with vehicle or G-1, as well as isotype antibody control (2A3) or αPD-1 antibody. Treatment was started at day 14 after tumors reached 4-5 mm in diameter. n=5 per group. FIG. 14E: Tumor volumes over time of treatment groups. FIG. 14F: Survival curve of mice treated with vehicle or G-1, as well as αPD-1 antibody or isotype antibody control (2A3).
Although B16F10 melanoma is the most commonly used model for melanoma immunology studies, and experimental results have largely translated to humans, B16F10 lacks the BRaf or NRas oncodriver mutations present in most human melanomas. […]

The subject of a further test is PDAC tumors. Put plainly: PDAC tumor bearing mice treated with G-1. Type of test: in vivo, mouse. Particulars: tumors grown 18 days, dosing on 3 consecutive days, follow-up 4 days; 2 independent PDAC cell lines.
Test [2] has as its system murine B16F10 melanoma cells. Put plainly: G-1-pretreated B16F10 cells injected into syngeneic C57BL/6 mice, then αPD-1 antibody or isotype control. The test is classed as in vivo, mouse. Conditions: B16F10 cells pretreated in vitro.
Source text: FIG. 13D: Experimental timeline of vehicle or G-1 pre-treatment of B16F10 cells followed by treatment with either αPD-1 antibody or isotype antibody control (2A3), n=5 per group. FIG. 13E: Tumor volumes of treatment groups at Day 14, * denotes significance One-way ANOVA with Tukey's multiple comparison test. FIG. 13F: Survival curve of mice with tumors pre-treated with vehicle or G-1, followed by isotype antibody control (2A3) or αPD-1 antibody.
To determine whether tumor cell intrinsic GPER signaling influences melanoma vulnerability to immune checkpoint therapy, studies were performed, based on the observation that GPER-driven differentiation is long lasting. G-1 was used to activate GPER and drive differentiation in murine B16F10 melanoma cells in vitro (FIG. 13D). Then, equal numbers of vehicle or G-1-treated tumor cells were injected into syngeneic C57BL/6 mice and the animals were treated with either αPD-1 antibody or isotype antibody control.
For a further test, the system named is NSCLC line LLC1. Nature of the test: proliferation assay of LLC1 treated with G-1. Type of test: cell-based. Conditions: LLC1, 500 nM, 6 days. The procedure:
(§1) FIGS. 18A-18G illustrate the finding that GPER signaling reduces NSCLC cell proliferation in vitro and in vivo and has combinatorial effects with αPD-1 immunotherapy. FIG. 18A: Western blot for pCREB of LLC1 cells treated with 500 nM G-1 for 30 minutes. FIG. 18B: Proliferation assay of LLC1 treated with 500 nM G-1 for 6 days. FIG. 18C: Western blot for c-Myc of LLC1 cells treated with 500 nM G-1 for 6 days. FIG. 18D: Western blot for c-Myc of LLC1 cells treated with 500 nM G-1 over a time-course. […] FIG. 18F: Tumor volumes over time of LLC1 tumor bearing mice treated with vehicle or G-1, as well as αPD-1 antibody or isotype antibody control (2A3). FIG. 18G: Survival curve of mice treated with vehicle or G-1, as well as αPD-1 antibody or isotype antibody control (2A3).

Test [3] concerns Mouse (B16) and human (WM46) melanoma cell lines. Nature of the test: tumor formation in mice from melanoma cells pretreated in vitro. The test is classed as in vivo. Conditions: melanoma cells pretreated in vitro, equal numbers injected into mice. As to the method:
(§2) FIG. 11A: Long-term melanin assay in which normal human melanocytes were transiently treated with progesterone (P4), or estrogen (E2). Subsets of these groups (Red) were treated with an additional transient pulse of P4 at Day 27. Error bars equal the standard deviation of the samples. FIG. 11B: Western blot of melanocyte differentiation markers after a transient, 4-day treatment with either vehicle or estrogen, followed by an 8 day withdraw period. FIG. 11C: Experimental timeline of estrogen or GPER agonist (G-1) pre-treatment of mouse and human melanoma cells, n=5 per group. FIG. 11D: Relative tumor weights of mouse and human melanomas pre-treated with estrogen, * denotes significance by the Mann-Whitney test. FIG. 11E: Relative tumor weights of mouse and human melanomas pre-treated with G-1, * denotes significance by the Mann-Whitney test.
Mouse (B16) and human (WM46) cell lines were pretreated with estrogen, G-1, or vehicle in vitro for one week then injected in equal numbers in to the left (vehicle-treated) or right (E2-treated) flank of mice, inducing tumor formation (N=5 mice per group) (FIG. 5). 14-16 days later, mice were imaged and tumors were harvested and weighed.
To test whether transient GPER signaling induces a persistent differentiation state in melanoma cells that affects subsequent tumor growth in vivo, melanoma cells were treated with estrogen, G-1, or vehicle in vitro, and subsequently injected equal numbers of treated cells into host mice (FIG. 11C).

For test [4], the system named is pRB, c-myc and GPER in WM46 melanoma cells. Nature of the test: Western blot of WM46 melanoma cells treated with increasing doses of G-1. Type of test: cell-based, human. Particulars: WM46, increasing concentrations.
Test [5] concerns c-Myc and pRB in syngeneic pancreatic ductal adenocarcinoma (PDAC) cell lines. Nature of the test: Western blot of PDAC cell lines treated with G-1. Conditions: 500 nM, 1 hour. On the technique in general: Immunoblotting shows a protein as a band on a membrane.
Procedure: FIG. 17A: Western blot of c-Myc in several PDAC cell lines treated with 500 nM G-1 for 1 hour.
Using a newly available set of syngeneic pancreatic ductal adenocarcinoma (PDAC) cell lines, the effects of GPER activation on the levels of c-Myc protein were examined.
A further test deals with normal human melanocytes. Put plainly: differentiation of normal human melanocytes after continuous or transient hormone exposure (melanin, RNAseq, Western blot). Type of test: cell-based. Conditions: normal human melanocytes, hormone or agonist exposure. As to the method: as §2
Normal human melanocytes received a pulse-treatment of estrogen—this consisted of 4 days of estrogen treatment followed by an 8 day withdraw.
To test whether pregnancy-associated hormones induce long-lasting changes in melanocyte differentiation that may affect their future susceptibility to transformation, primary human melanocytes were transiently exposed to estrogen or progesterone (FIGS. 11A-11E).
A subset of cells differentiated by transient exposure to estrogen was subsequently treated with progesterone.

The test system of test [6] is pCREB and c-Myc in NSCLC line TC-1. Put plainly: Western blot of TC-1 cells treated with G-1. Conditions: TC-1, 500 nM, 1 hour. Type of test: cell-based.
Test [7] concerns mouse melanoma cell line B16F10. Put plainly: in vivo treatment with G-1 of B16F10 melanoma (FIG. 6). Particulars: B16F10, FIG. 6.
The next test concerns LLC1 tumors. Nature of the test: LLC1 tumor bearing mice treated with subcutaneous G-1, αPD-1 antibody, or both. Type of test: in vivo, mouse. The procedure: as §1
To test whether G-1 had activity in vivo and synergizes with PD-1 immunotherapy, LLC1 tumors were grown in mice that were treated with subcutaneous G-1, αPD-1 antibody, or both, and survival compared to matched mice treated with vehicle and isotype antibody controls.

A further test has as its system PDAC cell lines. Put plainly: proliferation assay of PDAC cell lines treated with G-1. Type of test: cell-based. Particulars: 500 nM over 5 days.

As to `CC(=O)c1ccc2c(c1)[C@@H]1C=CC[C@@H]1[C@H](c1cc3c(cc1Br)OCO3)N2` (relative stereo) [Compound G-1, rel-1-[4-(6-bromo-1,3-benzodioxol-5-yl)-3aR,4S,5,9bS-tetrahydro-3H-cyclopenta[c]quinolin-8-yl]-ethanone], the survival entry in [1] was “modest, but significant, survival increases”. In addition, the “tumor size (tumor weights)” value in the test on PDAC tumors was “significantly smaller”. Also, in test [2], the subsequent tumor growth result is reported as “inhibited subsequent tumor growth” and the survival result is on record as “extended survival compared to controls”. Moreover, the proliferation result in the test with NSCLC line LLC1 is listed as “decreased proliferation”. Further, in test [3], the “tumor growth / tumor size from pretreated cells” value is given as “formed significantly smaller tumors; also recorded: markedly reduced subsequent tumor size”. Moreover, in test [4], the GPER expression result is on record as “elevation”, the c-myc levels entry is “reduction” and the pRB levels entry was “reduction”. In test [5], the c-Myc result is reported as “reduced” and the pRB entry was “reduced”. In the test with normal human melanocytes, the “melanocyte differentiation state (melanin pigment production)” value is given as “increase the differentiation state of human melanocytes”. In addition, the “pCREB and c-Myc signaling effects” value in [6] is given as “the same signaling effects also occur”. The “tumor growth in vivo” value in test [7] is on record as “inhibited tumor growth in vivo; also recorded: inhibits mouse melanoma cell line B16F10 growth in vivo”. In the test on LLC1 tumors, the survival entry is “did not alter survival significantly” and the tumor growth entry was “slowed tumor growth initially”. In the test on PDAC cell lines, the proliferation rates entry is reported as “inhibited”.
